Measurements taken from patent US7759392B2, “Pharmaceutical compounds” (Nicox S.A., priority 1999, dated 2010).
Entries after “also recorded” stand apart in the source; their conditions may differ. Where two headings read alike, the source gives them in different places.

Key:
gastrointestinal mucosa = conditions: male, Wistar, rat, in vivo, 6 h
Experimental: Gastric lesions induced by administration of the compounds of the invention in the confront of the corresponding drug precursor.
The animals have been sacrificed 6 hours after the administration. The gastrointestinal mucosa has been removed and inspected. The incidence of the gastrointestinal damage has been evaluated as described in experiment F1.

[1] = tested on: human endothelial cells of the umbilical vein; assay: Experiment F6: apoptosis (DNA fragmentation) induced in endothelial cells by hydrogen peroxide; format: cell-based; conditions: Endothelial cell, products 100 mmoles/l, hydrogen peroxide 200 mmoles/l, 18 hours, read-out: Apoptosis % (respect to the controls treated only with CIP)
Excerpt: It has been Evaluated the Activity of Some of the Compounds Object of the Present Invention and of the Corresponding Precursor Drugs in Inhibiting DNA Degradation (Apoptosis) in Endothelial Cells Exposed to the Action of Hydrogen Peroxide (HP)
Hydrogen peroxide is a mild oxidant and is considered as an essential mediating agent in pathologies associated with oxidative stress (B. Halliwell, J. Gutteridge “Free Radicals in Biology and Medicine”, page 416, 1993). Therefore the pharmacological activity of compounds to be used under oxidative stress conditions is evaluated through their capability of neutralizing the cytolesive effects of the hydrogen peroxide (B. Halliwell, J. Gutteridge “Free Radicals in Biology and Medicine”, page 416, 1993).
The method described by Herman et Al. (Herman C., Zeiner M. A., Dimmeler S., Arterioscler. Thromb. Vasc. Biol. 17 (12), 3588-82, 1997).
Human endothelial cells of the umbilical vein are prepared according to a standard method. Fresh umbilical veins, just removed, are filled with a solution of collagenase at 0.1% and incubated at 37° C. for 5 minutes.
Subsequently the veins are perfused with medium M 199 (GIBCO, Grand Island, N.Y.) pH 7.4 containing 20% of human serum. The cells are collected from the perfusate by centrifugation at 800 rpm and harvested in culture flasks T-75, pretreated with human fibronectin. […]

[2] = tested on: human endothelial cells of the umbilical vein; assay: Test 2 (CIP): apoptosis (DNA fragmentation) induced by cumene hydroperoxide in endothelial cells; format: cell-based; conditions: drug 10^-4 M; CIP 5 mM
Experimental: Test 2 (CIP): Protection parameter of endothelial cell against the oxidative stress induced by cumene hydroperoxide (CIP).
Human endothelial cells of the umbilical vein are prepared according to an usual standard procedure. Fresh umbilical veins are filled with a 0.1% by weight collagenase solution and incubated at 37° C. for 5 minutes.
The cells are collected from the perfusate by centrifugation and harvested in culture flasks T-75, pretreated with human fibronectin. The cells are then harvested in the same medium, further added with 10 ng/ml of bovine hypothalamic growth factor. When the cells of the primary cell culture (i.e. that directly obtained from ex-vivo) form a single layer of confluent cells (about 8,000,000 cells/flask), the culture is stopped and the layers washed and trypsinized. The cellular suspensions are transferred into the wells of a cell culture plate having 24 wells, half of which is then additioned with the same culture medium containing the drug at a 10^−4M concentration, and harvested in a thermostat at 37° C. at a constant moisture. Only the cells coming from said first sub-cultures are used for the experiments with cumene hydroperoxide (CIP).
Before starting the test, the cellular culture medium is removed and the cellular layers are carefully washed with a physiologic solution at a temperature of 37° C. The wells of the culture plate are then incubated for one hour with CIP at a 5 mM concentration in the culture medium. […] 5 replicates for each sample are carried out.
Human endothelial cells of the umbilical vein are prepared according to a standard method. Fresh umbilical veins are filled with a collagenase solution 0.1% by weight and incubated at 37° C. for 5 minutes.
The cells are collected from the perfusate by centrifugation at 800 rpm and harvested in culture flasks T-75, pretreated with human fibronectin. Cells are then harvested in the same medium, added with bovine hypothalamic growth factor (100 ng/ml). When the cells of the primary cell culture (the cells directly removed from ex-vivo umbilical vein) form a single layer of confluent cells (about 8,000,000 cells/flask), harvesting is stopped and the layers are washed and trypsinized. The cellular suspensions are transferred into wells of a culture plate having 24 wells, half of said wells being added with the same culture medium containing the drug at a 10^−4M concentration, and harvested in a thermostat at 37° C. at a constant moisture (90%), CO2=5%. When the drug is not soluble in the culture medium, it is formerly dissolved in a small amount of dimethylsulphoxide. The maximum amount of dimethylsulphoxide which can be added to the culture medium is 0.5%. Only the cells coming from these first subcultures are used for the tests with cumene hydroperoxide (CIP).
Before starting the test, the cellular culture medium is removed and the cellular layers are carefully washed with a standard physiologic solution buffered with phosphate 0.1 M pH 7.0, at the temperature of 37° C. The content of each well is then incubated for one hour with a CIP suspension in the culture medium at a 5 mM concentration. Evaluation of the cellular damage (apoptosis) is carried out by determining the percent variation of the DNA fragmentation in the cultures containing the drug+CIP with respect to the controls treated with CIP only. […] The fluorescence of each sample was determined on 5 replicates. Statistic evaluation has been made with t Student test (p<0.01).

liver = assay: Example F10: liver safety (AST, ALT, glutathione, bilirubin); format: in vivo, rat; conditions: rats, 6 hours; for AST %: i.p. (NO-paracetamol 1.4 g/Kg, paracetamol 1.16 g/Kg); for AST % / ALT % / Bilirubin % / Glutathione %: % of vehicle group; for ALT % / Bilirubin % / hepatic damage (in words) / Glutathione %: i.p.; for Glutathione %: liver glutathione
Experimental: After 6 hours the animals were killed by cervical dislocation, trunk blood collected and plasma analysed for aspartate aminotransferase (AST) and alanine aminotransferase (ALT) activity, liver glutathione and bilirubin concentration.

[3] = tested on: acetic acid mouse writhing; assay: Acetic acid mouse writhing; format: in vivo
Experimental: (§1) Antiinflammatory and analgesic activity have been measured according to carrageenan rat paw edema and acetic acid mouse writhing methods.
Experiments were conducted as described by Moore et al. (Br. J. Pharmacol. 102, 198-202 1990). The compounds were given orally 15 minutes prior to intraperitoneal acetic acid (2% w/v in saline pH 2.7, 10 ml/Kg). Mice were transferred immediately to individual observation cages and the number of abdominal constrictions monitored over the following 30 minutes. At the end of the observation period the animals were killed by cervical dislocation and exsanguination. Results are expressed as the number of abdominal constrictions (writhings) per 30 minutes test period, expressed as percentage to those observed in the control group, and are reported in Table IX.

[4] = tested on: carrageenan rat paw edema; assay: Carrageenan rat paw edema; format: in vivo; conditions: for Antiinflammatory activity % paw edema inhibition: rat, intraperitoneally prior to carrageenan, 3 h
Experimental: as §1
Experiments were conducted as described by Al-Swayeh et al., Brit. J. Pharmacol. 129, 343-350 2000). Hind paw volume was determined by plethysmography before and after 3 h after interplantar carrageenan injection (100 microliter, 2% w/v). The compounds were given intraperitoneally […] prior to carrageenan injection. At the end of the experiment animals were killed by cervical dislocation and exsanguination. The Results shown in Table IX are expressed as % of paw edema inhibition, i.e. the paw volume of the controls (vehicle) subtracted of the paw volume of the treated and the obtained difference divided by the paw volume of the controls.

[5] = format: biochemical
Experimental: Test 5 is a […] test wherein 0.1 ml aliquots of 10^−4 M methanolic solutions of the tested products are added to test tubes containing a solution formed by 0.2 ml of 2 mM deoxyribose, 0.4 ml of phosphate buffer pH 7.4 100 mM and 0.1 ml of 1 mM Fe^II(NH4)2(SO4)2 in 2 mM HCl. The test tubes are then maintained at 37° C. for one hour. Then in each test tube 0.5 ml of a 2.8% solution in trichloroacetic acid water and 0.5 ml of an aqueous 0.1 M solution of thiobarbituric acid are added, in the order. A reference blank is formed by adding to a test tube containing only the above described aqueous solution of reactants 0.1 ml of methanol. […] A pink coloration is developed the intensity of which is proportional to the quantity of deoxyribose undergone to radical oxidative degradation. The solutions are cooled at room temperature and their absorbances are read at 532 nm against the blank. The inhibition induced by the precursor of B or B1 or C=-Tc-Y—H in the confront of radical production by Fe^II is determined by means of the following formula: (1−As/Ac)×100 wherein As and Ac are respectively the absorbance values of the solution containing the tested compound+the iron salt and that of the solution containing only the iron salt, the compound meets test 5 when the inhibition percentage of radical production as above defined from the precursor of B is higher than or equal to 50%. […]

erythrocytes = assay: Test 4A: inhibition of erythrocyte haemolysis induced by cumene hydroperoxide; conditions: 2 mM, preincubated 30 minutes; cumene hydroperoxide 270 μM; at Tmax

Structure (SMILES) | inhibition of apoptosis induced by CIP (in words, p<0.01) [2] | AST % (liver) [%] | ALT % (liver) [%] | Bilirubin % (liver) [%] | Glutathione % (liver) [%] | Antiinflammatory activity % paw edema inhibition [4] [%] | further results
NCCCC(O)(P(=O)(O)O)P(=O)(O)O [Alendronate, sodic alendronate] | do not significantly inhibit apoptosis | – | – | – | – | – | Gastropathy % incidence (gastrointestinal mucosa): 100%; activity at 100000 µM [1]: 18%
CC(=O)Nc1ccc(OC(=O)CCCO[N+](=O)[O-])cc1 [Example 1, 4-nitroxybutyric acid 4′-acetylamino phenyl ester] | – | 160 | 57 | 136 | 49 | 69 | hepatic damage (in words) (liver; listed as NO-paracetamol): much lower increases of AST and ALT; also recorded: the bilirubin concentration is lower than that in the control groups; also recorded: able to spare the liver; analgesic activity compared with paracetamol (in words) ([3]; acetic acid writhing): much more active in both tests than paracetamol; antiinflammatory activity compared with paracetamol (in words) ([4]; carrageenan paw edema): much more active in both tests than paracetamol
OCCCCO [1,4-Butandiol] | – | – | – | – | – | – | % Radical inhibition from Fe^II [5]: 0%
CC(=O)Nc1ccc(O)cc1 [Paracetamol, paracetamol] | do not significantly inhibit apoptosis; also recorded: not significantly different with respect to that of the controls | 330 | 171 | 200 | 52 | 34 | hepatic damage (in words) (liver): causes hepatic damage; Analgesic activity % writhing inhibition ([3]; mice, orally 15 minutes prior to intraperitoneal acetic acid, 30 minutes): 40%
OCCOCCO [Diethylenglycol] | – | – | – | – | – | – | % Radical inhibition from Fe^II ([5]; 10^-4 M methanolic solution, 37° C. one hour, absorbance 532 nm): 0%; % Haemolysis inhibition (erythrocytes): 33.4%
